Experimental data reported in patent publication US10844054B2, “Compounds for pain treatment, compositions comprising same, and methods of using same” (CERSCI THERAPEUTICS, INC., priority 2018, dated 2020).
Read-outs that look alike come from different tables or passages of the source.

What was measured:
[1] = Inhibition of SIN1-mediated peroxynitrite oxidation of luminol (L-012 assay); assay type: biochemical; details: for Peroxynitrite gen (% control, 10 μM): compound at 10 μM, SIN-1 100 μM, L-012, PBS pH 8.5
Method: Luminol-like compounds such as L-012 are chemilumescent probes that are oxidized by the presence of ROS and RNS such as peroxynitrite. In this assay L-012 is oxidized by the addition of 3-morpholino-sydnonimine (SIN-1), a known peroxynitrite generator. The emitted luminescence is directly proportional to the concentration of SIN-1. The compounds were assessed for their ability to neutralize/scavenge/decompose peroxynitrite by blocking the increase of peroxynitrite induced chemilumescence. Concentrations of compound producing 50% inhibition of the luminescence signal (IC50 values) were calculated by testing the compounds at various concentrations of two parallel measurements.
Stock solution (10 mM) of compounds were prepared in 100% DMSO.
The following solutions were added to white polystyrene, non-sterile 96-well plate (Thermo Scientifi NUNC™ 96 MICROWELL™ White Polystyrene Plates #447796): • 10 μL SIN-1 2 mM in 100% DMSO solution (SIN-1 final concentration 100 DMSO final volume—5%); • 190 μL L012+/−test compound in phosphate-buffered solution (PBS, pH=8.5) (L012 final concentration 100 μM).
Luminescence signal was recorded by Hidex Sense multimodal microplate reader (Hidex) at 30° C. for 30 min, with a measurement every 60 sec and an integration time of 1 sec.
IC50 values were calculated using two different methods; first by measuring the slopes of the steepest linear portion of the kinetic profile during the first 5 min (as % from control) and secondly, by measuring the maximal luminiscence at 30 min time point (as % from control). IC50 values of the tested compounds were calculated using GraphPad Prism 5.0 software package.

[2] = system: nerve injury induced tactile allodynia; experiment: Rat spinal nerve ligation (SNL) model, tactile allodynia (von Frey); assay type: in vivo; details: 100 mg/kg i.p.
Method: The spinal nerve ligation (SNL) model of neuropathic pain in the rat results in behaviors similar to that observed in patients (Kim & Chung, 1992, Pain 50(3):355-63) and has been widely used to assess novel pharmacological treatments (Sindrup & Jensen, 1999, Pain 83(3):389-400). Compounds of the invention were evaluated for its ability to reverse or prevent development of tactile allodynia in a rat model of neuropathic pain.
The positive control was gabapentin (Toronto Research Chemicals, Canada). The negative control was vehicle (0.5% methyl cellulose; 2-hydroxy-propyl-beta-cyclodextrin). Male Sprague-Dawley Rats (Harlan, 11) were 250-300 g at time of dosing. […]
The effect of compounds of the invention on nerve injury induced tactile allodynia was investigated using von Frey filaments 1-3 weeks after tight ligation of the LS spinal nerve. Tactile thresholds were assessed using a series of calibrated von Frey monofilaments (Stoelting, Wood Dale, Ill.). Assessment of tactile allodynia was measured as the hind paw-withdrawal threshold that produced a 50% likelihood of a withdrawal using the up-down method. Thresholds were evaluated before surgery, and they were reassessed 1-3 weeks after SNL surgery. […] Tactile thresholds were again assessed either 1 and 3 h, 3 and 5 h or once weekly after administration. […]

[3] = system: carrageenan-induced thermal hyperalgesia and edema; experiment: Intraplantar carrageenan model of acute inflammatory pain (Hargreaves test, paw volume); assay type: in vivo, rat; details: 30 mg/kg p.o., dosed preemptively, assessed 4 h post-carrageenan
Method: The intraplantar carrageenan model of acute inflammatory pain in the rat results in behaviors similar to that observed in patients and has been widely used to assess novel pharmacological treatments (Whiteside, et al., 2005, J. Pharmacol. Exp. Ther. 314:1234-1240).
For this assay, paw withdrawal latency to a thermal stimulus was assessed using a radiant heat source (Ugo Basile, Italy) aimed at the plantar surface of the left hind paw (Hargreaves test). A cut-off latency of 40 sec is set to avoid tissue damage. Paw volume was measured by displacement of water and assuming a tissue density equal to that of water. Baseline latencies were taken prior to carrageenan administration and re-assessed 4 h later. Compounds of the invention or vehicle were administered (10 and 30 mg/kg, p.o.) 3 h after carrageenan (curative) and behavior assessed 1 h later. Additionally, compounds of the invention were administered 15 minutes prior to carrageenan (preemptive) and behavior assessed 4 h post carrageenan. Indomethacin (positive control, 30 mg/kg p.o.) was administered prior to carrageenan and behavior assessed 4 h post-carrageenan.
Intraplantar injection of carrageenan was performed under 2.5-4.0% isoflurane/O2 anesthesia, delivered via nose cone. After induction of anesthesia, the injection site was prepared in a sterile manner and 50 μL of a 2% λ-carrageenan was injected. […]

[4] = system: latency to fall from rotarod; experiment: Accelerating rotarod assay of ataxia; assay type: in vivo, rat; details: 3 mg/kg p.o., 1 h post-administration
Method: Ataxia is a common clinical problem with CNS-active compounds and can often confound interpretation of efficacy in preclinical pain models. The rotarod assay of ataxia has been widely used to assess the side-effect liability of novel pharmacological treatments (Jones & Roberts, 1968, J. Pharm. Pharmacol. 20:302-04).
The effect of compounds of the invention to impact latency to fall in an accelerating rotarod assay of ataxia in rats was evaluated. The positive control was haloperidol (Sigma, St. Louis), and the negative control was vehicle (which was hydroxypropylmethyl-cellulose and 15% DMA, 65% PEG300, and 20% D5W for haloperidol).
Male Sprague-Dawley Rats (Harlan, Ill.) were 250-300 g at time of dosing. Rotarod was obtained from IITC, CA. To examine the potential effects of compounds of the invention on motor performance, rats were tested on an accelerating rotarod (IITC, Ca). In this assay, rats were placed on the rotarod with the speed set to accelerate from 4 to 40 rpm over 300 sec. The maximum time spent on the rotarod was set at 300 seconds. Rats received two timed training trials (averaged to give the reported baseline) on the first day, then 24 h later rats were administered compound of the invention (30, 100 and 300 mg/kg, p.o.), haloperidol (3 mg/kg, p.o.) or vehicle.

[5] = from maximal luminescence at 30 min time point, read-out: IC50 (μM) (% luminol absorb. @ 30 min)
[6] = from slopes of steepest linear portion of kinetic profile during first 5 min, read-out: IC50 (μM) (% PN gen)

| SMILES | Peroxynitrite gen (% control, 10 μM) [1] [% control] | IC50 [1, 5] [µM] | IC50 [1, 6] [µM] | reversal of tactile allodynia [2] | prevention of carrageenan-induced edema (paw volume) [3] | prevention of carrageenan-induced thermal hyperalgesia [3] | motor performance / latency to fall in rotarod [4] |
| --- | --- | --- | --- | --- | --- | --- | --- |
| CC1(C)SC(Nc2ccncc2O)=N[C@H]1C(=O)O.Cl [Compound 18a, (S)-2-((3-Hydroxypyridin-4-yl)amino)-5,5-dimethyl-4,5-dihydrothiazole-4-carboxylic acid hydrochloride] | 77 | > 10 | > 10 | – | – | – | – |
| CC1(C)SC(Nc2ncccc2O)=N[C@@H]1C(=O)O.Cl [Compound 4a, (R)-2-(3-Hydroxy-pyridin-2-ylamino)-5,5-dimethyl-4,5-dihydro-thiazole-4-carboxylic acid hydrochloride] | 0 | 1.8 | 0.26 | – | – | – | – |
| NCC1(CC(=O)O)CCCCC1 [gabapentin] | – | – | – | statistically significant reversal of allodynia | – | – | – |
| CC1(C)SC(Nc2cccnc2O)=N[C@@H]1C(=O)O.Cl [Compound 22a, (R)-2-((2-Hydroxypyridin-3-yl)amino)-5,5-dimethyl-4,5-dihydrothiazole-4-carboxylic acid hydrochloride] | 96 | > 10 | > 10 | – | – | – | – |
| COc1ccc2c(c1)c(CC(=O)O)c(C)n2C(=O)c1ccc(Cl)cc1 [indomethacin] | – | – | – | – | statistically significant prevention | statistically significant prevention | – |
| O=C(CCCN1CCC(O)(c2ccc(Cl)cc2)CC1)c1ccc(F)cc1 [haloperidol] | – | – | – | – | – | – | significant motor deficits |
| CC1(C)SC(Nc2cnccc2O)=N[C@@H]1C(=O)O.Cl [Compound 12a, (R)-2-((4-Hydroxypyridin-3-yl)amino)-5,5-dimethyl-4,5-dihydrothiazole-4-carboxylic acid hydrochloride] | 82 | > 10 | > 10 | – | – | – | – |
| Cl.O=C(O)[C@@H]1CSC(Nc2cnccc2O)=N1 [Compound 25a, (R)-2-((4-Hydroxypyridin-3-yl)amino)-4,5-dihydrothiazole-4-carboxylic acid hydrochloride] | 111 | > 10 | > 10 | – | – | – | – |
| CC1(C)SC(Nc2ncccc2O)=N[C@H]1C(=O)O.Cl [Compound 5a, (S)-2-(3-Hydroxy-pyridin-2-ylamino)-5,5-dimethyl-4,5-dihydro-thiazole-4-carboxylic acid hydrochloride] | 0 | 1.6 | 0.17 | – | – | – | – |
| Cl.O=C(O)[C@@H]1CSC(Nc2ncccc2O)=N1 [Compound 7a, (R)-2-((3-hydroxypyridin-2-yl)amino)-4,5-dihydrothiazole-4-carboxylic acid hydrochloride] | 0 | 1.8 | 0.17 | – | – | – | – |
| Cl.O=C(O)[C@@H]1CSC(Nc2ccncc2O)=N1 [Compound 27a, (R)-2-(3-Hydroxy-pyridin-4-ylamino)-4,5-dihydro-thiazole-4-carboxylic acid hydrochloride] | 61 | > 10 | > 10 | – | – | – | – |
| CC1(C)SC(Nc2ccncc2O)=N[C@@H]1C(=O)O.Cl [Compound 17a, (R)-2-((3-Hydroxypyridin-4-yl)amino)-5,5-dimethyl-4,5-dihydrothiazole-4-carboxylic acid hydrochloride] | 75 | > 10 | > 10 | – | – | – | – |
| Cl.O=C(O)[C@H]1CSC(Nc2ncccc2O)=N1 [Compound 8a, (S)-2-((3-hydroxypyridin-2-yl)amino)-4,5-dihydrothiazole-4-carboxylic acid hydrochloride] | 0 | 2.1 | 0.23 | – | – | – | – |
| CC1(C)SC(Nc2cccnc2O)=N[C@H]1C(=O)O.Cl [Compound 23a, (S)-2-((2-Hydroxypyridin-3-yl)amino)-5,5-dimethyl-4,5-dihydrothiazole-4-carboxylic acid hydrochloride] | 67 | > 10 | > 10 | – | – | – | – |
